PubChem BioAssay (NCI)
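Five compound concentrations were applied to cells in 96-well plates for 48 hours; endpoints were derived by simple linear interpolation of the resulting dose-response curve. GI50: concentration for 50% inhibition of growth. TGI: total growth inhibition.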

Experiments:
Assay in all cases: NCI anticancer screen, dose series, 48 h
OVCAR-3 ovarian = test system: OVCAR-3 ovarian
NCI-H460 lung = test system: NCI-H460 lung
SK-MEL-2 melanoma = test system: SK-MEL-2 melanoma
SNB-75 CNS = test system: SNB-75 CNS
HCC-2998 colon = test system: HCC-2998 colon
DU-145 prostate = test system: DU-145 prostate
LOX IMVI melanoma = test system: LOX IMVI melanoma
HOP-62 NSCLC = test system: HOP-62 NSCLC
NCI-H23 lung = test system: NCI-H23 lung
TK-10 renal = test system: TK-10 renal
CCRF-CEM leukemia = test system: CCRF-CEM leukemia
SK-MEL-28 melanoma = test system: SK-MEL-28 melanoma
U251 CNS = test system: U251 CNS
PC-3 prostate = test system: PC-3 prostate
HL-60(TB) leukemia = test system: HL-60(TB) leukemia
COLO 205 colon = test system: COLO 205 colon
SF-268 CNS = test system: SF-268 CNS
RPMI-8226 leukemia = test system: RPMI-8226 leukemia
HOP-92 NSCLC = test system: HOP-92 NSCLC
UACC-62 melanoma = test system: UACC-62 melanoma
BT-549 breast = test system: BT-549 breast
MDA-MB-435 = test system: MDA-MB-435
KM12 colon = test system: KM12 colon
EKVX NSCLC = test system: EKVX NSCLC
SF-295 CNS = test system: SF-295 CNS
SF-539 CNS = test system: SF-539 CNS
CAKI-1 renal = test system: CAKI-1 renal
NCI-H226 lung = test system: NCI-H226 lung
NCI-H522 lung = test system: NCI-H522 lung

O=C(Nc1cccc(-c2nc(-c3ccc(NC(=O)c4cccs4)cc3Cl)no2)c1)Nc1ccc(NC(=O)C2CC2)c(C(F)(F)F)c1
GI50 (OVCAR-3 ovarian): 0.28 µM | TGI (OVCAR-3 ovarian): 0.778 µM | GI50 (NCI-H460 lung): 0.204 µM | TGI (NCI-H460 lung): 0.412 µM | GI50 (SK-MEL-2 melanoma): 0.343 µM | TGI (SK-MEL-2 melanoma): 1.29 µM | GI50 (SNB-75 CNS): 0.183 µM | TGI (SNB-75 CNS): 1.01 µM | GI50 (HCC-2998 colon): 0.321 µM | TGI (HCC-2998 colon): 1.14 µM | GI50 (DU-145 prostate): 0.317 µM | TGI (DU-145 prostate): 1.13 µM | GI50 (LOX IMVI melanoma): 0.185 µM | TGI (LOX IMVI melanoma): 0.356 µM | GI50 (HOP-62 NSCLC): 0.241 µM | TGI (HOP-62 NSCLC): 0.624 µM | GI50 (NCI-H23 lung): 0.226 µM | TGI (NCI-H23 lung): 0.571 µM | GI50 (TK-10 renal): 0.338 µM | TGI (TK-10 renal): 1.54 µM | GI50 (CCRF-CEM leukemia): 0.518 µM | TGI (CCRF-CEM leukemia): > 35.4 µM | GI50 (SK-MEL-28 melanoma): 0.209 µM | TGI (SK-MEL-28 melanoma): 0.45 µM | GI50 (U251 CNS): 0.193 µM | TGI (U251 CNS): 0.414 µM | GI50 (PC-3 prostate): 0.209 µM | TGI (PC-3 prostate): 0.46 µM | GI50 (HL-60(TB) leukemia): 2.27 µM | TGI (HL-60(TB) leukemia): > 26.8 µM | GI50 (COLO 205 colon): 0.291 µM | TGI (COLO 205 colon): 0.903 µM | GI50 (SF-268 CNS): 0.344 µM | TGI (SF-268 CNS): 1.45 µM | GI50 (RPMI-8226 leukemia): 0.396 µM | TGI (RPMI-8226 leukemia): 2.14 µM | GI50 (HOP-92 NSCLC): 0.18 µM | TGI (HOP-92 NSCLC): 0.45 µM | GI50 (UACC-62 melanoma): 0.205 µM | TGI (UACC-62 melanoma): 0.527 µM | GI50 (BT-549 breast): 0.414 µM | TGI (BT-549 breast): 2.43 µM | GI50 (MDA-MB-435): 0.23 µM | TGI (MDA-MB-435): 0.547 µM | GI50 (KM12 colon): 0.317 µM | TGI (KM12 colon): 1.05 µM | GI50 (EKVX NSCLC): 0.295 µM | TGI (EKVX NSCLC): 1.2 µM | GI50 (SF-295 CNS): 0.191 µM | TGI (SF-295 CNS): 0.37 µM | GI50 (SF-539 CNS): 0.188 µM | TGI (SF-539 CNS): 0.381 µM | GI50 (CAKI-1 renal): 0.244 µM | TGI (CAKI-1 renal): 0.678 µM | GI50 (NCI-H226 lung): 0.227 µM | TGI (NCI-H226 lung): 0.601 µM | GI50 (NCI-H522 lung): 0.244 µM | TGI (NCI-H522 lung): 0.729 µM
